Measurements reported in patent publication US20220288048A1, “PIMAVANSERIN FOR TREATING SCHIZOPHRENIA OR FOR TREATING PSYCHOSIS SECONDARY TO NEURODEGENERATIVE DISORDERS OR DEPRESSIVE DISORDER” (ACADIA Pharmaceuticals Inc., priority 2019, published 2022).
Entries after “also recorded” stand apart in the source; their conditions may differ.

Experiments:
Format in all cases: in vivo
[1] = test system: scPCP-treated C57BL/6J mice; assay: 10-min social interaction test in scPCP-treated mice; details: 45 min prior to test
Method: Negative symptoms model: The behavioral assay utilized to assess negative symptoms was social interaction (SI) task.
(§1) Briefly, mice were habituated to the test arena (i.e., the NOR box) for 30 minutes prior to the test day. Pairs of mice, unfamiliar to each other, received either the same treatment (e.g., vehicle and vehicle; N=10 pairs) or different treatments (e.g., vehicle; N=10 and phencyclidine (PCP) 10 mg/kg; N=10). After washout, they were placed in the test arena together for 10 minutes. A heavy object made of Plexiglas or metal was placed in the center of the test arena to quantify the time and nature of interaction of the test animals with an unfamiliar object or an unfamiliar animal. After the 10 min test phase, the object and the arena were cleaned with 70% ethanol to remove any olfactory trails. Behavior was recorded on video for subsequent blind scoring.
(§2) The following four behaviors were scored for each animal: • a) Sniffing: A normal mouse engages in sniffing the con-specific mouse's body, including the anogenital area • b) Following: A normal mouse pursues a con-specific mouse around the arena • c) Avoiding: A normal mouse avoids the con-specific mouse and move away from a pursuing mouse if approached • d) Object Exploration: A normal mouse explores the object that is placed in the center of the test arena.
scPCP treatment involved intraperitoneal injection (ip) of 10 mg/kg PCP to male C57BL/6J mice, twice daily (bid) for 7 days, followed by 7 days washout. To test the effect of atypical APD or pimavanserin in scPCP-treated mice (N=10 pairs of mice per group), risperidone was administered as 0.05 mg/kg ip or 0.2 mg/kg ip; and pimavanserin was administered as 3 mg/kg ip or 6 mg/kg ip to scPCP-treated mice 45 minutes prior to the commencement of the social interaction task in the 10 min social interaction test.

[2] = test system: scPCP+ARS(2h) treated male C57BL/6J mice; assay: 10-min social interaction test in scPCP-treated mice given 2 h acute restraint stress (treatment-resistant model); details: for Able to restore sniffing or decrease avoidance (SI deficit), drug alone: risperidone 0.2, olanzapine 1, aripiprazole 1 or pimavanserin 3 mg/kg ip alone, 45 min prior to test
Method: as §1, §2
Acute restraint stress (ARS) protocol: Mice were assigned to one of two groups: either the control group (non-stress) or the stress group. Generally, mice of the stress group were restrained in well-ventilated 50 mL tubes. After the restraint period of 1 or 2 hours, the mice were transferred into a clean animal housing cage for 1-hour interval and thereafter went through the first social interaction test (different mice are used to test different groups).
Treatment resistant animal model: To establish this model, Acute restraint stress (ARS) was added to scPCP treatment. Two groups (vehicle+ARS; scPCP+ARS) and their controls (vehicle+saline; scPCP+saline) were used. ARS was applied for 1 or 2 hours and tested on SI 1 hour post-ARS.
(§3) The behavioral assay, ARS protocol, and scPCP-treatment as described in Example 2 were used. To test the effect of atypical APD and pimavanserin, alone or as con-administration, in scPCP-treated mice (N=10 pairs of mice per group) given 2 h ARS, risperidone (“Risp”) was administered as 0.2 mg/kg or 0.4 mg/kg ip; olanzapine (“Olan”) as 1.0 mg/kg ip; aripiprazole (“Aripi”) as 1.0 mg/kg ip; and pimavanserin (“Pim”) as 3 mg/kg ip to scPCP+ARS(2h) treated male C57BL/6J mice 45 minutes prior to the commencement of the social interaction task in the 10 min social interaction test. Plasma levels of risperidone were measured using a Triple Quad 6500+ mass spectrometer.

[3] = Plasma levels of risperidone in scPCP and ARS-treated mice (mass spectrometer)
Method: as §3

| SMILES | SI deficit produced by scPCP: time exploring the conspecific mouse ([1]; risperidone 0.05 mg/kg ip) | SI deficit produced by scPCP: time exploring the conspecific mouse ([1]; risperidone 0.2 mg/kg ip) | Effect on SI deficit, doubled dose ([2]; risperidone 0.4 mg/kg ip) | Able to restore sniffing or decrease avoidance (SI deficit), drug alone [2] | Plasma levels of risperidone ([3]; 0.2 mg/kg risperidone group) | Plasma levels of risperidone ([3]; 0.2 mg/kg risperidone plus 3 mg/kg pimavanserin group) | Plasma levels of risperidone ([3]; 0.4 mg/kg risperidone group) |
| --- | --- | --- | --- | --- | --- | --- | --- |
| Cc1nc2n(c(=O)c1CCN1CCC(c3noc4cc(F)ccc34)CC1)CCCC2 [risperidone] | sub-effective | spent more time exploring the conspecific mouse | ineffective | Neither; also recorded: ineffective | 5.4±0.1 | 5.3±0.6 | 8.0±3.3 |
| O=C1CCc2ccc(OCCCCN3CCN(c4cccc(Cl)c4Cl)CC3)cc2N1 [aripiprazole] | – | – | – | Neither | – | – | – |
